Key:
[1] = system: greenfoxtail (Setaria viridis L.); experiment: Test Example 1: foliar treatment, growth inhibition rate, greenfoxtail; type: in vivo; settings: visually observed 17th to 23rd day after application
Outline: (§1)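 Seeds were sown in upland field soil in pots. At the target leaf stage (corn 2.0–3.5; greenfoxtail 1.0–3.0; rice 1.0–2.5; wheat 1.7–3.4), the formulated compound, diluted at a water volume of 500 L/ha with 0.1 vol % spreader, was applied by small sprayer. Plants were rated by eye on days 17–23.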

[2] = system: redroot pigweed (Amaranthus retroflexus L.); experiment: Test Example 1: foliar treatment, growth inhibition rate, redroot pigweed; type: in vivo; settings: visually observed 17th to 23rd day after application
Outline: (§2)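 Visual scoring of growth inhibition, 0% (untreated) to 100% (complete kill), on days 17–23 following post-emergence spray of formulated compound in water (500 L/ha, 0.1 vol % spreader); plants treated at set leaf stages, e.g. corn 2.0–3.5, wheat 1.7–3.4.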

corn = experiment: Test Example 2: soil application on the day after sowing, growth inhibition rate, corn; type: in vivo, Zea mays L.; settings: 250 g/ha active ingredient, observed on 19th to 24th day
Outline: (§3)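 Pre-emergence soil treatment: one day post-sowing in upland soil, compound formulations at set active-ingredient rates were applied in 500 L/ha water. Visual rating of growth inhibition (0% untreated-equivalent to 100% complete kill) followed on days 19–24 after application.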

corn (Zea mays L.) = experiment: Test Example 1: foliar treatment, growth inhibition rate, corn; type: in vivo; settings: visually observed 17th to 23rd day after application
Outline: as §1

rice (Oryza sativa L.) = experiment: Test Example 1: foliar treatment, growth inhibition rate, rice; type: in vivo; settings: visually observed 17th to 23rd day after application
Outline: as §1

[3] = system: barnyardgrass (Echinochloa crus-galli L.); experiment: Test Example 1: foliar treatment, growth inhibition rate, barnyardgrass; type: in vivo; settings: visually observed 17th to 23rd day after application
Outline: as §2

[4] = system: velvetleaf (Abutilon theophrasti MEDIC.); experiment: Test Example 1: foliar treatment, growth inhibition rate, velvetleaf; type: in vivo; settings: visually observed 17th to 23rd day after application
Outline: as §2

barnyardgrass = experiment: Test Example 2: soil application on the day after sowing, growth inhibition rate, barnyardgrass; type: in vivo, Echinochloa crus-galli L.; settings: 250 g/ha active ingredient, observed on 19th to 24th day
Outline: as §3

greenfoxtail = experiment: Test Example 2: soil application on the day after sowing, growth inhibition rate, greenfoxtail; type: in vivo, Setaria viridis L.; settings: 250 g/ha active ingredient, observed on 19th to 24th day
Outline: as §3

[5] = system: crabgrass (Digitaria sanguinalis L.); experiment: Test Example 1: foliar treatment, growth inhibition rate, crabgrass; type: in vivo; settings: visually observed 17th to 23rd day after application
Outline: as §2

wheat = experiment: Test Example 2: soil application on the day after sowing, growth inhibition rate, wheat; type: in vivo, Triticum spp.; settings: 250 g/ha active ingredient, observed on 19th to 24th day
Outline: as §3

rice = experiment: Test Example 2: soil application on the day after sowing, growth inhibition rate, rice; type: in vivo, Oryza sativa L.; settings: 250 g/ha active ingredient, observed on 19th to 24th day
Outline: as §3

redroot pigweed = experiment: Test Example 2: soil application on the day after sowing, growth inhibition rate, redroot pigweed; type: in vivo, Amaranthus retroflexus L.; settings: 250 g/ha active ingredient, observed on 19th to 24th day
Outline: as §3

[6] = system: prickly sida (Sida spinosa L.); experiment: Test Example 1: foliar treatment, growth inhibition rate, prickly sida; type: in vivo; settings: visually observed 17th to 23rd day after application
Outline: as §2

crabgrass = experiment: Test Example 2: soil application on the day after sowing, growth inhibition rate, crabgrass; type: in vivo, Digitaria sanguinalis L.; settings: 250 g/ha active ingredient, observed on 19th to 24th day
Outline: as §3

prickly sida = experiment: Test Example 2: soil application on the day after sowing, growth inhibition rate, prickly sida; type: in vivo, Sida spinosa L.; settings: 250 g/ha active ingredient, observed on 19th to 24th day
Outline: as §3

velvetleaf = experiment: Test Example 2: soil application on the day after sowing, growth inhibition rate, velvetleaf; type: in vivo, Abutilon theophrasti MEDIC.; settings: 250 g/ha active ingredient, observed on 19th to 24th day
Outline: as §3

wheat (Triticum spp.) = experiment: Test Example 1: foliar treatment, growth inhibition rate, wheat; type: in vivo; settings: visually observed 17th to 23rd day after application
Outline: as §1

[7] = system: soybean (Glycine max Merr.); experiment: Test Example 1: foliar treatment, growth inhibition rate, soybean; type: in vivo; settings: visually observed 17th to 23rd day after application
Outline: as §2

soybean = experiment: Test Example 2: soil application on the day after sowing, growth inhibition rate, soybean; type: in vivo, Glycine max Merr.; settings: 250 g/ha active ingredient, observed on 19th to 24th day
Outline: as §3

Row | SMILES | Growth inhibition rate (%) Greenfoxtail ([1]; 31 g/ha active ingredient) [%] | Growth inhibition rate (%) redroot pigweed ([2]; 31 g/ha active ingredient) [%] | Growth inhibition rate (%) Corn (corn) [%] | Growth inhibition rate (%) Corn (corn (Zea mays L.); 31 g/ha active ingredient) [%] | Growth inhibition rate (%) Rice (rice (Oryza sativa L.); 31 g/ha active ingredient) [%] | Growth inhibition rate (%) Barnyardgrass ([3]; 31 g/ha active ingredient) [%] | Growth inhibition rate (%) Velvetleaf ([4]; 31 g/ha active ingredient) [%] | Growth inhibition rate (%) Barnyardgrass (barnyardgrass) [%] | Growth inhibition rate (%) Greenfoxtail (greenfoxtail) [%] | Growth inhibition rate (%) Crabgrass ([5]; 31 g/ha active ingredient) [%] | Growth inhibition rate (%) Wheat (wheat) [%] | Growth inhibition rate (%) Rice (rice) [%] | Growth inhibition rate (%) redroot pigweed (redroot pigweed) [%] | Growth inhibition rate (%) Prickly sida ([6]; 31 g/ha active ingredient) [%] | Growth inhibition rate (%) Crabgrass (crabgrass) [%] | Growth inhibition rate (%) Prickly sida (prickly sida) [%] | Growth inhibition rate (%) Velvetleaf (velvetleaf) [%] | Growth inhibition rate (%) Wheat (wheat (Triticum spp.); 31 g/ha active ingredient) [%] | Growth inhibition rate (%) Soybean ([7]; 31 g/ha active ingredient) [%] | Growth inhibition rate (%) Soybean (soybean) [%] | other results
1 | CCCOc1c(S(C)(=O)=O)ccc(C(=O)c2cnn(CC)c2OC(=O)SCC)c1C [compound 67] | 100 | 95 | 0 | 10 | 60 | 95 | 90 | 60 | 40 | 98 | 0 | 60 | 50 | 60 | 70 | 70 | 60 | 10 | 90 | 20 | –
2 | CCSC(=O)Oc1c(C(=O)c2ccc(S(C)(=O)=O)c(COC3CCOC3)c2C)cnn1C (stereo not drawn) [compound 223] | 90 | 90 | 0 | 0 | 70 | 100 | 95 | 70 | 70 | 100 | 0 | 40 | 90 | 70 | 100 | 60 | 80 | 0 | 100 | 0 | –
3 | CCOc1c(S(C)(=O)=O)ccc(C(=O)c2cnn(CC)c2OC(=O)SCC)c1C [compound 58] | 100 | 90 | 0 | 0 | 80 | 95 | 100 | 60 | 70 | 98 | 0 | 70 | 90 | 70 | 100 | 70 | 10 | 40 | 98 | 0 | –
4 | CCCSC(=O)Oc1c(C(=O)c2ccc(S(C)(=O)=O)c(C(=O)OC)c2C)cnn1CC [compound 85] | 100 | 95 | 10 | 10 | 95 | 98 | 98 | 100 | 100 | 98 | 0 | 100 | 98 | 98 | 100 | 100 | 100 | 60 | 98 | 50 | –
5 | CCOC(=O)c1c(S(C)(=O)=O)ccc(C(=O)c2cnn(CC)c2OC(=O)SCC)c1C [compound 61] | 100 | 100 | 0 | 50 | 90 | 98 | 95 | 100 | 100 | 98 | 30 | 85 | 100 | 95 | 100 | 80 | 90 | 60 | 80 | 20 | –
6 | C#CCOc1c(S(C)(=O)=O)ccc(C(=O)c2cnn(C)c2OC(=O)SCC)c1C [compound 222] | 80 | 100 | 0 | 0 | 70 | 90 | 60 | 95 | 80 | 70 | 0 | 90 | 100 | 30 | 100 | 50 | 80 | 0 | 100 | 0 | –
7 | CCSC(=O)Oc1c(C(=O)c2ccc(S(C)(=O)=O)c(OCCSC)c2C)cnn1C [compound 81] | 0 | 10 | 0 | 10 | 10 | 30 | 0 | 0 | 10 | 0 | 0 | 0 | 0 | 0 | 0 | 0 | 0 | 0 | 50 | 0 | –
8 | CCSC(=O)Oc1c(C(=O)c2ccc(S(C)(=O)=O)c(OCCC3OCCO3)c2Cl)cnn1CC [compound 221] | – | – | 0 | – | – | – | – | 80 | 70 | – | 0 | 80 | 100 | – | 100 | 60 | 60 | – | – | 0 | Growth inhibition rate (%) Greenfoxtail ([1]; 63 g/ha active ingredient): 50%; Growth inhibition rate (%) redroot pigweed ([2]; 63 g/ha active ingredient): 80%; Growth inhibition rate (%) Corn (corn (Zea mays L.); 63 g/ha active ingredient): 0%; Growth inhibition rate (%) Rice (rice (Oryza sativa L.); 63 g/ha active ingredient): 20%; Growth inhibition rate (%) Barnyardgrass ([3]; 63 g/ha active ingredient): 100%; Growth inhibition rate (%) Velvetleaf ([4]; 63 g/ha active ingredient): 60%; Growth inhibition rate (%) Crabgrass ([5]; 63 g/ha active ingredient): 50%; Growth inhibition rate (%) Prickly sida ([6]; 63 g/ha active ingredient): 40%; Growth inhibition rate (%) Wheat (wheat (Triticum spp.); 63 g/ha active ingredient): 0%; Growth inhibition rate (%) Soybean ([7]; 63 g/ha active ingredient): 100%
9 | CCCCCCCc1c(S(C)(=O)=O)ccc(C(=O)c2cnn(C)c2OC(=O)SCC)c1C [compound 225] | 20 | 0 | 0 | 0 | 0 | 30 | 0 | 0 | 0 | 0 | 0 | 0 | 30 | 0 | 0 | 0 | 0 | 0 | 50 | 0 | –

Reference: patent US8030498B2, “Benzoylpyrazole compounds and herbicides containing them” (Ishihara Sangyo Kaisha, Ltd., priority 2005, dated 2011)
